The values that follow come from patent US8299022B2, “Analogs of ghrelin substituted at the N-terminal” (IPSEN Pharma S.A.S., priority 2006, dated 2012).

Square brackets hold non-standard residues; d marks the D form. Peptide text beside a SMILES is read from it. * marks the point of attachment. Octanoyl = CCCCCCCC(=O)*; Aib = CC(C)(N)C(=O)O; Inp = O=C(O)C1CCNCC1

The series can be described thus: Rat plasma ½ life (stability in plasma in a rat model). The format is in vitro ADME. The procedure:
A selection of the preferred embodiments listed above was analyzed to determine stability, i.e. ½ life in plasma in a rat model using techniques known to those skilled in the art.
With `CCCCCCCC(=O)OC[C@H](NC(=O)[C@H](CO)NC(=O)C1CCNCC1)C(=O)N[C@@H](Cc1ccccc1)C(=O)N[C@@H](CC(C)C)C(=O)N[C@@H](CO)C(=O)N1CCC[C@H]1C(=O)N[C@@H](CCC(=O)O)C(=O)N[C@@H](Cc1c[nH]cn1)C(=O)N[C@@H](CCC(N)=O)C(=O)N[C@@H](CCCNC(=N)N)C(=O)N[C@H](C(=O)N[C@@H](CCC(N)=O)C(=O)N[C@@H](CCC(N)=O)C(=O)N[C@@H](CCCNC(=N)N)C(=O)N[C@@H](CCCCN)C(=O)N[C@@H](CCC(=O)O)C(=O)N[C@@H](CO)C(=O)N[C@@H](CCCCN)C(=O)N[C@@H](CCCCN)C(=O)N1CCC[C@H]1C(=O)N1CCC[C@H]1C(=O)N[C@@H](C)C(=O)N[C@@H](CCCCN)C(=O)N[C@@H](CC(C)C)C(=O)N[C@@H](CCC(N)=O)C(=O)N1CCC[C@H]1C(=O)N[C@@H](CCCNC(=N)N)C(N)=O)C(C)C` [Example 5, (Inp^1)hGhrelin(1-28)-NH2], the “Rat Plasma ½ life” value was determined as 6.2 h. Under `CCCCCCNC(=O)CC[C@H](NC(=O)C(C)(C)NC(=O)C1(N)CCNCC1)C(=O)N[C@@H](Cc1ccccc1)C(=O)N[C@@H](CC(C)C)C(=O)N[C@@H](CO)C(=O)N1CCC[C@H]1C(=O)N[C@@H](CCC(=O)O)C(=O)N[C@@H](Cc1c[nH]cn1)C(=O)NC(C)(C)C(=O)N[C@@H](CCCNC(=N)N)C(=O)N[C@H](C(=O)N[C@@H](CCC(N)=O)C(=O)N[C@@H](CCC(N)=O)C(=O)N[C@@H](CCCNC(=N)N)C(=O)N[C@@H](CCCCN)C(=O)N[C@@H](CCC(=O)O)C(=O)N[C@@H](CO)C(=O)N[C@@H](CCCCN)C(=O)N[C@@H](CCCCN)C(=O)N1CCC[C@H]1C(=O)N1CCC[C@H]1C(=O)N[C@@H](C)C(=O)N[C@@H](CCCCN)C(=O)N[C@@H](CC(C)C)C(=O)N[C@@H](CCC(N)=O)C(=O)N1CCC[C@H]1C(=O)N[C@@H](CCCNC(=N)N)C(N)=O)C(C)C` [Example 4, (1-Apc^1, Aib^2, 10, Glu(NH-hexyl)^3)-hGhrelin(1-28)-NH2] stands 10.0 h; under `CCCCCCCC(=O)OC[C@H](NC(=O)[C@H](CCCCN)NC(=O)[C@H](CCCNC(=N)N)NC(=O)[C@H](CCC(N)=O)NC(=O)[C@H](CCC(N)=O)NC(=O)[C@@H](NC(=O)[C@H](CCCNC(=N)N)NC(=O)[C@H](CCC(N)=O)NC(=O)[C@H](Cc1c[nH]cn1)NC(=O)C(C)(C)NC(=O)[C@@H]1CCCN1C(=O)[C@H](CO)NC(=O)[C@H](CC(C)C)NC(=O)[C@H](Cc1ccccc1)NC(=O)[C@H](COC(=O)CCCCCCC)NC(=O)C(C)(C)NC(=O)C1CCNCC1)C(C)C)C(=O)N[C@@H](CO)C(=O)N[C@@H](CCCCN)C(=O)N[C@@H](CCCCN)C(=O)N1CCC[C@H]1C(=O)N1CCC[C@H]1C(=O)N[C@@H](C)C(=O)N[C@@H](CCCCN)C(=O)N[C@@H](CC(C)C)C(=O)N[C@@H](CCC(N)=O)C(=O)N1CCC[C@H]1C(=O)N[C@@H](CCCNC(=N)N)C(N)=O` [Example 12, (Inp^1, Aib^2,8, Ser(n-octanoyl)^17)hGhrelin(1-28)-NH2] (H-[Inp][Aib]S(Octanoyl)FLSP[Aib]HQRVQQRKS(Octanoyl)SKKPPAKLQPR-NH2; N-terminus assumed), 0.7 h; under `CCCCCCCC(=O)OC[C@H](NC(=O)[C@H](CCCCN)NC(=O)[C@H](CCCNC(=N)N)NC(=O)[C@H](CCC(N)=O)NC(=O)[C@H](CCC(N)=O)NC(=O)[C@@H](NC(=O)[C@H](CCCNC(=N)N)NC(=O)[C@H](CCC(N)=O)NC(=O)[C@H](Cc1c[nH]cn1)NC(=O)[C@H](CCC(=O)O)NC(=O)[C@@H]1CCCN1C(=O)[C@H](CO)NC(=O)[C@H](CC(C)C)NC(=O)[C@H](Cc1ccccc1)NC(=O)[C@H](COC(=O)CCCCCCC)NC(=O)C(C)(C)NC(=O)C1CCNCC1)C(C)C)C(=O)N[C@@H](CO)C(=O)N[C@@H](CCCCN)C(=O)N[C@@H](CCCCN)C(=O)N1CCC[C@H]1C(=O)N1CCC[C@H]1C(=O)N[C@@H](C)C(=O)N[C@@H](CCCCN)C(=O)N[C@@H](CC(C)C)C(=O)N[C@@H](CCC(N)=O)C(=O)N1CCC[C@H]1C(=O)N[C@@H](CCCNC(=N)N)C(N)=O` [Example 10, (Inp^1, Aib^2, Ser(n-octanoyl)^17)hGhrelin(1-28)-NH2], 0.6 h. The figure for `CCCCCCCC(=O)OC[C@H](NC(=O)[C@H](CO)NC(=O)C1CCNCC1)C(=O)N[C@@H](Cc1ccccc1)C(=O)N[C@@H](CC(C)C)C(=O)N[C@@H](CO)C(=O)N1CCC[C@H]1C(=O)N[C@@H](CCC(=O)O)C(=O)N[C@@H](Cc1c[nH]cn1)C(=O)N[C@@H](CCC(N)=O)C(=O)N[C@@H](CCCNC(=N)N)C(=O)N[C@H](C(=O)N[C@@H](CCC(N)=O)C(=O)N[C@@H](CCC(N)=O)C(=O)N[C@@H](CCCNC(=N)N)C(=O)N[C@@H](CCCCN)C(=O)N[C@@H](COC(=O)CCCCCCC)C(=O)N[C@@H](CO)C(=O)N[C@@H](CCCCN)C(=O)N[C@@H](CCCCN)C(=O)N1CCC[C@H]1C(=O)N1CCC[C@H]1C(=O)N[C@@H](C)C(=O)N[C@@H](CCCCN)C(=O)N[C@@H](CC(C)C)C(=O)N[C@@H](CCC(N)=O)C(=O)N1CCC[C@H]1C(=O)N[C@@H](CCCNC(=N)N)C(N)=O)C(C)C` [Example 11, (Inp^1, Ser(n-octanoyl)^17)hGhrelin(1-28)-NH2] is 0.7 h; for `CCCCCCCC(=O)OC[C@H](NC(=O)C(C)(C)NC(=O)C1CCNCC1)C(=O)N[C@@H](Cc1ccccc1)C(=O)N[C@@H](CC(C)C)C(=O)N[C@@H](CO)C(=O)N1CCC[C@H]1C(=O)NC(C)(C)C(=O)N[C@@H](Cc1c[nH]cn1)C(=O)N[C@@H](CCC(N)=O)C(=O)N[C@@H](CCCNC(=N)N)C(=O)N[C@H](C(=O)N[C@@H](CCC(N)=O)C(=O)N[C@@H](CCC(N)=O)C(=O)N[C@@H](CCCNC(=N)N)C(=O)N[C@@H](CCCCN)C(=O)N[C@@H](CCC(=O)O)C(=O)N[C@@H](CO)C(=O)N[C@@H](CCCCN)C(=O)N[C@@H](CCCCN)C(=O)N1CCC[C@H]1C(=O)N1CCC[C@H]1C(=O)N[C@@H](C)C(=O)N[C@@H](CCCCN)C(=O)N[C@@H](CC(C)C)C(=O)N[C@@H](CCC(N)=O)C(=O)N1CCC[C@H]1C(=O)N[C@@H](CCCNC(=N)N)C(N)=O)C(C)C` [Example 9, (Inp^1, Aib^2, 8)hGhrelin(1-28)-NH2] it is 1.2 h. Under `CCCCCCCC(=O)OC[C@H](NC(=O)C(C)(C)NC(=O)C1CCNCC1)C(=O)N[C@@H](Cc1ccccc1)C(=O)N[C@@H](CC(C)C)C(=O)N[C@@H](CO)C(=O)N1CCC[C@H]1C(=O)N[C@@H](CCC(=O)O)C(=O)N[C@@H](Cc1c[nH]cn1)C(=O)N[C@@H](CCC(N)=O)C(=O)N[C@@H](CCCNC(=N)N)C(=O)N[C@H](C(=O)N[C@@H](CCC(N)=O)C(=O)N[C@@H](CCC(N)=O)C(=O)N[C@@H](CCCNC(=N)N)C(=O)N[C@@H](CCCCN)C(=O)N[C@@H](CCC(=O)O)C(=O)N[C@@H](CO)C(=O)N[C@@H](CCCCN)C(=O)N[C@@H](CCCCN)C(=O)N1CCC[C@H]1C(=O)N1CCC[C@H]1C(=O)N[C@@H](C)C(=O)N[C@@H](CCCCN)C(=O)N[C@@H](CC(C)C)C(=O)N[C@@H](CCC(N)=O)C(=O)N1CCC[C@H]1C(=O)N[C@@H](CCCNC(=N)N)C(N)=O)C(C)C` [Example 6, (Inp^1, Aib^2)hGhrelin(1-28)-NH2] stands 1.4 h; under `CCCCCCCC(=O)OC[C@H](NC(=O)C(C)(C)NC(=O)C1CCNCC1)C(=O)N[C@@H](Cc1ccccc1)C(=O)N[C@@H](CC(C)C)C(=O)N[C@@H](CO)C(=O)N1CCC[C@H]1C(=O)N[C@@H](CCC(=O)O)C(=O)N[C@@H](Cc1c[nH]cn1)C(=O)NC(C)(C)C(=O)N[C@@H](CCCNC(=N)N)C(=O)N[C@H](C(=O)N[C@@H](CCC(N)=O)C(=O)N[C@@H](CCC(N)=O)C(=O)N[C@@H](CCCNC(=N)N)C(=O)N[C@@H](CCCCN)C(=O)N[C@@H](CCC(=O)O)C(=O)N[C@@H](CO)C(=O)N[C@@H](CCCCN)C(=O)N[C@@H](CCCCN)C(=O)N1CCC[C@H]1C(=O)N1CCC[C@H]1C(=O)N[C@@H](C)C(=O)N[C@@H](CCCCN)C(=O)N[C@@H](CC(C)C)C(=O)N[C@@H](CCC(N)=O)C(=O)N1CCC[C@H]1C(=O)N[C@@H](CCCNC(=N)N)C(N)=O)C(C)C` [Example 8, (Inp^1, Aib^2, 10)hGhrelin(1-28)-NH2], 1.2 h; under `CCCCCCNC(=O)CC[C@H](NC(=O)C(C)(C)NC(=O)C1CCNCC1)C(=O)N[C@@H](Cc1ccccc1)C(=O)N[C@@H](CC(C)C)C(=O)N[C@@H](CO)C(=O)N1CCC[C@H]1C(=O)N[C@@H](CCC(=O)O)C(=O)N[C@@H](Cc1c[nH]cn1)C(=O)N[C@@H](CCC(N)=O)C(=O)N[C@@H](CCCNC(=N)N)C(=O)N[C@H](C(=O)N[C@@H](CCC(N)=O)C(=O)N[C@@H](CCC(N)=O)C(=O)N[C@@H](CCCNC(=N)N)C(=O)N[C@@H](CCCCN)C(=O)N[C@@H](CCC(=O)O)C(=O)N[C@@H](CO)C(=O)N[C@@H](CCCCN)C(=O)N[C@@H](CCCCN)C(=O)N1CCC[C@H]1C(=O)N1CCC[C@H]1C(=O)N[C@@H](C)C(=O)N[C@@H](CCCCN)C(=O)N[C@@H](CC(C)C)C(=O)N[C@@H](CCC(N)=O)C(=O)N1CCC[C@H]1C(=O)N[C@@H](CCCNC(=N)N)C(N)=O)C(C)C` [Example 7, (Inp^1, Aib^2, Glu(NH-hexyl)^3)hGhrelin(1-28)-NH2], 6.7 h.
